Results taken from PMC12498288 (Frontiers in Immunology, 2025).
Several values for one entry are separate records, joined by “and”; a condition that tells them apart may be missing. Equal values may be shown once.

Experiments:
[1] = system: HCoV 229E; assay: Virus yield reduction assay, HCoV-229E on MRC-5 cells (RT-qPCR); format: cell-based; details: Human coronavirus 229E, MRC5, MOI 0.001, 48 h
Protocol: The virus yield reduction assay of HCoV-229E and HCoV-OC43 was performed on MRC-5 cells seeded at 1.5x10^5 cells per well in 24-well plates 24 h prior infection with HCoV-229E (MOI 0.001) or HCoV-OC43 (MOI 0.1) for 1 h. The inoculum was completely removed, and the cells were treated with different concentrations of zapnometinib (50 µM to 0.006 µM) and a solvent control in Iscove’s Modified Dulbecco’s Medium (IMDM) containing 2% FBS, 1% Penicillin/Streptomycin at 34°C, 5% CO2 for 24 h (HCoV-OC43) or 48 h (HCoV-229E). Supernatants were harvested and the viral titer was determined by a real-time one-step multiplex RT-qPCR using specific primers targeting the N and NS2 genes for HCoV-229E and HCoV-OC43 respectively ( Supplementary Table 1 ) EC50 values were calculated based on the measured viral titers normalized to the solvent control (1% DMSO) and using the “log(inhibitor) vs. response - Variable slope (four parameters)” analysis in GraphPad Prism v9.

[2] = design: method as in NCT04385420; EudraCT 2021-005225-25; details: two phase 1 studies in healthy volunteers, ref NCT04385420; EudraCT 2021-005225-25; cited from earlier work
[3] = system: human PBMCs; assay: Cytokine and chemokine levels in LPS-stimulated human PBMCs (ELISA); format: cell-based; details: 1 µg/mL LPS, 10 µg/mL zapnometinib, 6 h, vs untreated control
Protocol: Human peripheral blood mononuclear cells (PBMCs) were isolated from healthy volunteers registered with the Biobank of the Department of Immunology at the University of Tuebingen, after informed consent documented in writing. Ethical approval was obtained upon review by the Ethics Board of the Medical Faculty of the Eberhard Karls University Tuebingen and the University Hospital Tuebingen (887/2020BO2). Briefly, 50 ml whole blood (roughly 5x10^7 PBMCs) of two donors were taken in 50 ml syringes (BD Biosciences, Franklin Lakes, New Jersey, USA) supplied with heparin-natrium (100.000 I.E./ml; Braun, Melsungen, Germany). The whole blood was mixed with PBS (Gibco, Carlsbad, California, USA) in a 1:1 ratio in 50 ml tubes (Greiner Bio-One, Frickenhausen, Germany), and PBMCs were subsequently isolated from the whole blood by density gradient centrifugation using Histopaque®-1077 (Sigma-Aldrich, St. Louis, Missouri, USA) as density gradient medium. Five millilitres of plasma per donor were preserved for cell culture medium preparation. The PBMCs were then purified by washing them twice with PBS.
2x10^6 human PBMCs from two donors each were suspended in 1 mL RPMI 1640 medium (Gibco) containing 5% autologous plasma, 1% penicillin/streptomycin (Sigma-Aldrich), and 1% L-glutamine (Sigma-Aldrich) and were treated with 1 μg/mL LPS from E. coli O55:B5 (prepared in PBS) and 10 μg/mL zapnometinib (prepared in DMSO and diluted in cell culture medium to a final concentration of 0.1% DMSO) for 6 h at 37°C and 5% CO2. The supernatants (cell culture medium) were collected and stored at -20°C until analysis by ELISA. Ready-to-use ELISA kits (Invitrogen, Waltham, Massachusetts, USA) were used according to the manufacturer’s instructions to determine the levels of the following cytokines: IL-1β, IL-6, IL-8, IP-10, MCP-1, MIP-1α, and TNF-α. Briefly, the samples and standards were applied to ELISA plates pre-coated with specific antibodies targeting the cytokines of interest. Biotinylated detection antibodies binding to the cytokines of interest were added to the wells followed by a horseradish peroxidase (HRP)-streptavidin conjugate, which binds to the biotinylated detection antibodies. Unbound cytokines, detection antibodies, and HRP-streptavidin conjugate were removed by washing. Tetramethylbenzidine (TMB) substrate was added, and the color change in the wells served as the readout for the ELISA. Optical density (OD) at 450 nm was measured using a SpectraMAX Plus 384 microplate reader. For IL-1β, IL-8, MCP-1, and TNF-α the OD was also read at a reference wavelength of 620 nm, and for IL-6 at a reference wavelength of 550 nm. For IP-10 and MIP-1α no reference wavelength was used. Cytokine and chemokine concentrations were calculated following the manufacturer’s instructions for interpolating unknown concentrations from a standard curve.

In the case of `O=C(O)c1ccc(F)c(F)c1Nc1ccc(I)cc1Cl` [zapnometinib], the EC50 [1] is given as 26.6 µM and 10.9 µg/mL, the “toxicity and tolerability in humans” value [2] is given as “showed no toxicity and was well tolerated” and the IL-1β expression level [3] is given as “significantly reduced”. For the same compound, the IL-6 expression level [3] was “significantly reduced”, the IL-8 expression level [3] was “significantly reduced” and the IP-10 expression level [3] was “significantly reduced”. For the same compound, the MCP-1 expression level [3] was “significantly reduced”, the MIP-1α expression level [3] was “significantly reduced” and the TNF-α expression level [3] was “significantly reduced”.
